From patent publication US20030232839A1, “Treatment of sleeping disorders using CNS sleep target modulators” (Hypnion, Inc., priority 2002, published 2003)

Legend:
[1] = molecular target: rat 5-HT2A receptor (Rattus norvegicus, UniProt P14842); experiment: 5-HT2A binding study, rat receptor; conditions: read-out: 5HT-2a Ki, Rat
[2] = molecular target: human 5-HT2A receptor (Homo sapiens, UniProt P28223); experiment: 5-HT2A binding study, human receptor; conditions: read-out: 5HT-2a Ki, Human
[3] = test system: Male Wistar rats; experiment: SCORE-2000 sleep-wake assay (EEG/EMG, locomotor activity, body temperature)
[4] = 3 mg/kg and 10 mg/kg IP at CT-5

Sequence of rat 5-HT2A receptor (P14842 whole entry): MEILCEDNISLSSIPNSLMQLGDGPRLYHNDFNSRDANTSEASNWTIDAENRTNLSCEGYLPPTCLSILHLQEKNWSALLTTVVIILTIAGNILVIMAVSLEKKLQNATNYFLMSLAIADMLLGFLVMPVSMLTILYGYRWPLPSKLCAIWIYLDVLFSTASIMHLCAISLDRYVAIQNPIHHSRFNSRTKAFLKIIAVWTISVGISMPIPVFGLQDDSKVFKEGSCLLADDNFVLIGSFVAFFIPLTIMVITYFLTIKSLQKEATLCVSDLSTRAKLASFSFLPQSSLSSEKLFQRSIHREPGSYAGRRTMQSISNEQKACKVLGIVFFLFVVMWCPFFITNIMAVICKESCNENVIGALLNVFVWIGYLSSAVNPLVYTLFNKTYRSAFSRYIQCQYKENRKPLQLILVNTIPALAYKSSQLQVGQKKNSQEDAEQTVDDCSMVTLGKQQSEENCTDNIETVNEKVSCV
Sequence of human 5-HT2A receptor (P28223 whole entry): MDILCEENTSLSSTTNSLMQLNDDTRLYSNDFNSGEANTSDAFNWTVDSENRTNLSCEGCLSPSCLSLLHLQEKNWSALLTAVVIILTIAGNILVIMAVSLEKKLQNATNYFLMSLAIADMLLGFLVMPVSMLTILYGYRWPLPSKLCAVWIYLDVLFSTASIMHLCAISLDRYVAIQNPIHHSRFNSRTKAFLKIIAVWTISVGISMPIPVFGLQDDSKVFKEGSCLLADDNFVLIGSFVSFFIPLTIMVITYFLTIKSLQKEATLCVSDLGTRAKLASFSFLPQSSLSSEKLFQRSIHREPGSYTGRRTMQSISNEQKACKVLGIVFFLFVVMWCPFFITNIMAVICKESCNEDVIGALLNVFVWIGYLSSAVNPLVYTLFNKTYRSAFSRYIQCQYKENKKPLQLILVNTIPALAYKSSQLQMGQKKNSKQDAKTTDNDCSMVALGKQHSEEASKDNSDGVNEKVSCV

Row | Compound | Ki [1] [nM] | Ki [2] [µM] | activity on sleep-wakefulness in all measured variables ([3]; 30 mg/kg) | increasing sleep and sleep consolidation ([3]; 30 mg/kg) | duration of interference with sleep post-treatment [3, 4] [h] | duration of reduction in nonREM sleep time post-treatment [3, 4] [h] | rebound hypersomnolence after sleep interference [3, 4]
1 | Cl.O=C(O)C1CN(CCCn2nc3ccccn3c2=O)CCN1c1cccc(Cl)c1 (stereo not shown) [HY-2724] | 989 | > 10 | inactive | ineffective |  |  | 
2 | Clc1cccc(N2CCNCC2)c1 [m-CPP, meta-chlorophenylpiperazine] |  |  |  |  | 2 to 3 | 2 to 3 | followed by a rebound hypersomnolence
